Like-named read-outs stand apart in the source and are kept apart here. Where a SMILES comes first, the peptide text is derived from it. Bridges are numbered along the chain shown (N, C = ends). [ ]: non-standard residue; d: D form. The star is where a group is joined. X2 = O=C(O)c1cc(C(=O)*)ccc1-c1c2ccc(=O)cc-2oc2cc(O)ccc12; PEG12 = NCCOCCOCCOCCOCCOCCOCCOCCOCCOCCOCCOCCOCCC(=O)O; NMePhe(3-Cl) = CN[C@@H](Cc1cccc(Cl)c1)C(=O)O; NMeW = CN[C@@H](Cc1c[nH]c2ccccc12)C(=O)O; NMeY = CN[C@@H](Cc1ccc(O)cc1)C(=O)O; NMeH = CN[C@@H](Cc1c[nH]cn1)C(=O)O; NMeF = CN[C@@H](Cc1ccccc1)C(=O)O; PEG4 = NCCOCCOCCOCCOCCC(=O)O; Nva = CCC[C@H](N)C(=O)O; Aib = CC(C)(N)C(=O)O
Molecular target: transferrin receptor (hTfR) (Homo sapiens, UniProt P02786)
Experiment: Intermolecular interaction evaluation test between transferrin receptor (hTfR) and peptide by surface plasmon resonance (SPR)
Format: binding
Summary of the method: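 hTfR captured on Ni-NTA chip then amine-coupled; peptides run single-cycle kinetics at 5–100 nM in 10 mM HEPES pH 8.0, 150 mM NaCl, 0.05% Tween 20, 0.1% BSA, 1.0% DMSO. KD from least-squares curve fitting of sensorgrams.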

[1] = binding to hTfR by SPR, Table 2 peptides, read-out: KD value (SPR) class
[2] = surface plasmon resonance, peptide vs hTfR, read-out: KD value, hTfR binding by SPR (class symbol)
[3] = surface plasmon resonance, hTfR, read-out: KD value for hTfR by SPR (class symbol)

transferrin receptor (hTfR), sequence (P02786 whole entry): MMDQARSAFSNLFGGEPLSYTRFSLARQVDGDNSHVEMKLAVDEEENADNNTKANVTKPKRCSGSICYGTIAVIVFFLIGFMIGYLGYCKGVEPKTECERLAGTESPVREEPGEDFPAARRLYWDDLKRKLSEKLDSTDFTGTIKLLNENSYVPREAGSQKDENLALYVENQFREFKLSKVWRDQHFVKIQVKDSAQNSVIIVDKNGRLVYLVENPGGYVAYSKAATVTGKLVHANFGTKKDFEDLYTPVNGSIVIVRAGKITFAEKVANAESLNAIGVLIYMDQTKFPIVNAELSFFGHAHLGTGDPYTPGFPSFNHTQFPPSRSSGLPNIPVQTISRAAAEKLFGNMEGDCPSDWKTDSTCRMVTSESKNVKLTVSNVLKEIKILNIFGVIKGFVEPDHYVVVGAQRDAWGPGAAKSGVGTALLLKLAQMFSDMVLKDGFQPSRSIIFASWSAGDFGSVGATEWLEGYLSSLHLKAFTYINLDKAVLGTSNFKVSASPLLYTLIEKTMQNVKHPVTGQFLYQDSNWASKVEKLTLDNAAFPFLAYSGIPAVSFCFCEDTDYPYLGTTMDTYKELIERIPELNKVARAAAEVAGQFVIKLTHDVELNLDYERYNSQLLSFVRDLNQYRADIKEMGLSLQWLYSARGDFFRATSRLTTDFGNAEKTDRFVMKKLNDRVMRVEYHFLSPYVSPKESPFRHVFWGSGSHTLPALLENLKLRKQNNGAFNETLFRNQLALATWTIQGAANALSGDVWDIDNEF

`CC[C@H](C)[C@@H]1NC(=O)[C@H](Cc2ccc(O)cc2)NC(=O)[C@H](Cc2ccc(O)cc2)NC(=O)[C@H](CC(N)=O)NC(=O)[C@H](Cc2c[nH]c3ccccc23)NC(=O)[C@H](C(C)C)NC(=O)[C@H](Cc2ccccc2)N(C)C(=O)[C@H](C(C)C)NC(=O)[C@H](C)NC(=O)CSC[C@@H](C(=O)NCCOCCOCCOCCOCCC(=O)NCCOCCOCCOCCOCCC(=O)NCCOCCOCCOCCOCCC(=O)N[C@@H](CCCCNC(=O)C2CCC(CN3C(=O)C=CC3=O)CC2)C(N)=O)NC(=O)[C@H](Cc2ccc(O)cc2)N(C)C(=O)[C@H](Cc2ccc(O)cc2)NC(=O)[C@H](CCCNC(=N)N)NC(=O)[C@H](CCCNC(=N)N)NC(=O)[C@H]([C@@H](C)CC)NC1=O` (some centres unmarked) [compound 182] was tested, and the Kd (hTfR binding by SPR, hTfR No. 894 variant peptides, linker-added peptides and payload conjugates (Table 2), read-out: KD value obtained from the SPR measurement) was 1 to 100 nM.
`CC[C@H](C)[C@@H]1NC(=O)[C@H](Cc2ccc(O)cc2)NC(=O)[C@H](Cc2ccc(O)cc2)NC(=O)[C@H](CC(N)=O)NC(=O)[C@H](Cc2c[nH]c3ccccc23)NC(=O)[C@H](C(C)C)NC(=O)[C@H](Cc2ccccc2)NC(=O)[C@H](C(C)C)NC(=O)[C@H](C)NC(=O)CSC[C@@H](C(N)=O)NC(=O)[C@H](Cc2ccc(O)cc2)N(C)C(=O)[C@H](Cc2ccc(O)cc2)NC(=O)[C@H](C)NC(=O)[C@H](CCC(=O)O)NC(=O)[C@H]([C@@H](C)CC)NC1=O` [compound 252] was tested, and the Kd [1] was 100 to 1000 nM.
For `CC[C@H](C)[C@@H]1NC(=O)[C@H](CCCNC(=N)N)NC(=O)[C@H](CC(N)=O)NC(=O)[C@H](C)NC(=O)CSC[C@@H](C(=O)NCCOCCOCCOCCOCCOCCOCCOCCOCCOCCOCCOCCOCCC(=O)N[C@@H](CCCCNC(=O)c2ccc(-c3c4ccc(=O)cc-4oc4cc(O)ccc34)c(C(=O)O)c2)C(N)=O)NC(=O)[C@H](Cc2c[nH]cn2)N(C)C(=O)[C@H](CCCNC(=N)N)NC(=O)[C@@H]2CCCN2C(=O)[C@H]([C@@H](C)CC)NC(=O)[C@H]([C@@H](C)CC)NC(=O)[C@H](Cc2ccc(O)cc2)NC(=O)[C@H](Cc2ccc(O)cc2)NC(=O)[C@H](CC(N)=O)NC(=O)[C@H](Cc2c[nH]c3ccccc23)NC(=O)[C@H](C(C)C)NC(=O)[C@H](Cc2ccccc2)NC(=O)[C@H](C(C)C)NC1=O` [compound 154] ({CH2CO}-ANRIVFVWNYYIIPR[NMeH]C[PEG12]K(X2)-NH2; thioether N-17), the Kd (SPR, linker and payload (FITC, VivoTag) conjugates, read-out: KD) was 1 to 100 nM.
In the case of `CC[C@H](C)[C@@H]1NC(=O)[C@H](Cc2ccc(OC)cc2)NC(=O)[C@H](Cc2ccc(O)cc2)NC(=O)[C@H](CC(N)=O)NC(=O)[C@H](Cc2c[nH]c3ccccc23)N(C)C(=O)[C@H](C(C)C)NC(=O)[C@H](Cc2ccncc2)N(C)C(=O)[C@H](C(C)C)NC(=O)[C@H](C)NC(=O)CSC[C@@H](C(N)=O)NC(=O)[C@H](Cc2ccc(O)cc2)N(C)C(=O)[C@H](Cc2ccccc2)NC(=O)[C@@H](CCCNC(=N)N)NC(=O)[C@H](CCCNC(=N)N)NC(=O)[C@H]([C@@H](C)CC)NC1=O` [compound 451], the Kd (SPR, hTfR, class symbols A-D, read-out: KD) is reported as 100 to 1000 nM.
`CCC[C@@H]1NC(=O)[C@H]([C@@H](C)CC)NC(=O)[C@H](Cc2ccc(OC)cc2)NC(=O)[C@H](Cc2ccc(O)cc2)NC(=O)[C@H](CC(N)=O)NC(=O)[C@H](Cc2c[nH]c3ccccc23)N(C)C(=O)[C@H](C(C)C)NC(=O)[C@H](Cc2cccc(Cl)c2)N(C)C(=O)[C@H](C(C)C)NC(=O)[C@H](C)NC(=O)CSC[C@@H](C(=O)NCCOCCOCCOCCOCCC(N)=O)NC(=O)[C@H](Cc2ccc(O)cc2)N(C)C(=O)[C@H](Cc2ccccc2)NC(=O)[C@@H](CCCNC(=N)N)NC(=O)[C@H](CCCNC(=N)N)NC1=O` [compound 326] ({CH2CO}-AV[NMePhe(3-Cl)]V[NMeW]NYY(Me)I[Nva]R[dR]F[NMeY]C[PEG4]-NH2; thioether N-15) showed a Kd [2] of 1 to 100 nM.
`CC[C@H](C)[C@@H]1NC(=O)[C@H](Cc2ccc(O)cc2)NC(=O)[C@H](Cc2ccc(O)cc2)NC(=O)[C@H](CC(N)=O)NC(=O)[C@H](Cc2c[nH]c3ccccc23)N(C)C(=O)[C@H](C(C)C)NC(=O)[C@H](Cc2ccccc2)N(C)C(=O)[C@H](C(C)C)NC(=O)[C@H](C)NC(=O)CSC[C@@H](C(N)=O)NC(=O)[C@H](Cc2ccc(O)cc2)N(C)C(=O)[C@H](Cc2ccc(O)cc2)NC(=O)[C@H](CCCNC(=N)N)NC(=O)[C@H](CCCNC(=N)N)NC(=O)[C@H]([C@@H](C)CC)NC1=O` [compound 299] gave a Kd [2] of 1 to 100 nM.
For `CC[C@H](C)[C@@H]1NC(=O)[C@H](Cc2ccc(OC)cc2)NC(=O)[C@H](Cc2ccc(O)cc2)NC(=O)[C@H](CC(N)=O)NC(=O)[C@H](Cc2c[nH]c3ccccc23)N(C)C(=O)[C@H](C(C)C)NC(=O)[C@H](Cc2ccccc2)N(C)C(=O)[C@H](C(C)C)NC(=O)[C@H](C)NC(=O)CSC[C@@H](C(=O)NCCOCCOCCOCCOCCC(N)=O)NC(=O)[C@H](Cc2ccc(O)cc2)N(C)C(=O)[C@H](Cc2ccccc2)NC(=O)[C@@H](CCCNC(=N)N)NC(=O)C(C)(C)NC(=O)[C@H]([C@@H](C)CC)NC1=O` [compound 301] ({CH2CO}-AV[NMeF]V[NMeW]NYY(Me)II[Aib][dR]F[NMeY]C[PEG4]-NH2; thioether N-15), the Kd [2] was 1 to 100 nM.
`CC[C@H](C)[C@@H]1NC(=O)[C@H](Cc2ccc(OC)cc2)NC(=O)[C@H](Cc2ccc(O)cc2)NC(=O)[C@H](CC(N)=O)NC(=O)[C@H](Cc2c[nH]c3ccccc23)N(C)C(=O)[C@H](C(C)C)NC(=O)[C@H](Cc2cccc(Cl)c2)N(C)C(=O)[C@H](C(C)C)NC(=O)[C@H](C)NC(=O)CSC[C@@H](C(=O)N[C@H](CCC(=O)O)C(=O)NCC(=O)NCC(=O)NCC(=O)N[C@@H](CO)C(=O)N[C@@H](CO)C(=O)N[C@@H](CS)C(N)=O)NC(=O)[C@H](Cc2ccc(O)cc2)N(C)C(=O)[C@H](Cc2ccccc2)NC(=O)[C@@H](CCCNC(=N)N)NC(=O)[C@H](CCCNC(=N)N)NC(=O)[C@H]([C@@H](C)CC)NC1=O` [compound 402] ({CH2CO}-AV[NMePhe(3-Cl)]V[NMeW]NYY(Me)IIR[dR]F[NMeY]C[dE]GGGSSC-NH2; thioether N-15) was tested, and the Kd [3] was 1 to 100 nM.
For `CC[C@H](C)[C@@H]1NC(=O)[C@H](Cc2ccc(OC)cc2)NC(=O)[C@H](Cc2ccc(O)cc2)NC(=O)[C@H](CC(N)=O)NC(=O)[C@H](Cc2c[nH]c3ccccc23)N(C)C(=O)[C@H](C(C)C)NC(=O)[C@H](Cc2cccc(Cl)c2)N(C)C(=O)[C@H](C(C)C)NC(=O)[C@H](C)NC(=O)CSC[C@@H](C(=O)NCCOCCOCCOCCOCCC(N)=O)NC(=O)[C@H](Cc2ccc(O)cc2)N(C)C(=O)[C@H](Cc2ccccc2)NC(=O)[C@@H](CCCNC(=N)N)NC(=O)C(C)(C)NC(=O)[C@H]([C@@H](C)CC)NC1=O` [compound 354], the Kd [3] was < 1 nM.
Molecule `CC[C@H](C)[C@@H]1NC(=O)[C@H](Cc2ccc(O)cc2)NC(=O)[C@H](Cc2ccc(O)cc2)NC(=O)[C@H](CC(N)=O)NC(=O)[C@H](Cc2c[nH]c3ccccc23)N(C)C(=O)[C@H](C(C)C)NC(=O)[C@H](Cc2cccc(Cl)c2)N(C)C(=O)[C@@H]2CCCC(=O)NCCCCC[C@H](NC(=O)[C@H]([C@@H](C)CC)NC1=O)C(=O)N[C@@H](CCCNC(=N)N)C(=O)N[C@@H](Cc1ccc(O)cc1)C(=O)N(C)[C@@H](Cc1ccc(O)cc1)C(=O)N[C@H](C(N)=O)CSCC(=O)N[C@@H](C)C(=O)N2` [compound 410] has a Kd [3] of 1 to 100 nM.
Work on `CC[C@H](C)[C@@H]1NC(=O)[C@H](Cc2ccc(O)cc2)NC(=O)[C@H](Cc2ccc(O)cc2)NC(=O)[C@H](CC(N)=O)NC(=O)[C@H](Cc2c[nH]c3ccccc23)N(C)C(=O)[C@H](C(C)C)NC(=O)[C@H](Cc2cc(Cl)cc(Cl)c2)N(C)C(=O)[C@H](C(C)C)NC(=O)[C@H](C)NC(=O)CSC[C@@H](C(N)=O)NC(=O)[C@H](Cc2ccc(O)cc2)N(C)C(=O)[C@H](Cc2ccccc2)NC(=O)[C@@H](CCCNC(=N)N)NC(=O)[C@H](CCCNC(=N)N)NC(=O)[C@H]([C@@H](C)CC)NC1=O` [compound 302] yielded a Kd [2] of 1 to 100 nM.
`CC[C@H](C)[C@@H]1NC(=O)[C@H](Cc2ccc(O)cc2)NC(=O)[C@H](Cc2ccc(O)cc2)NC(=O)[C@H](CC(N)=O)NC(=O)[C@H](Cc2c[nH]c3ccccc23)NC(=O)[C@H](C(C)C)NC(=O)[C@H](Cc2ccccc2)NC(=O)[C@H](C(C)C)NC(=O)[C@H](C)NC(=O)CSC[C@@H](C(N)=O)NC(=O)[C@H](Cc2ccc(O)cc2)N(C)C(=O)[C@H](CCC(=O)O)NC(=O)[C@H](CCCNC(=N)N)NC(=O)[C@H](CCCNC(=N)N)NC(=O)[C@H]([C@@H](C)CC)NC1=O` [compound 259] gave a Kd [1] of 1 to 100 nM.
Work on `CC[C@H](C)[C@@H]1NC(=O)[C@H](Cc2ccc(OC)cc2)NC(=O)[C@H](Cc2ccc(O)cc2)NC(=O)[C@H](CC(N)=O)NC(=O)[C@H](Cc2c[nH]c3ccccc23)N(C)C(=O)[C@H](C(C)C)NC(=O)[C@H](Cc2cccc(Cl)c2)N(C)C(=O)[C@H](C(C)C)NC(=O)[C@H](CCC(=O)O)NC(=O)CSC[C@@H](C(N)=O)NC(=O)[C@H](Cc2ccc(O)cc2)N(C)C(=O)[C@H](Cc2ccccc2)NC(=O)[C@H](CCCNC(=N)N)NC(=O)[C@H](CCCNC(=N)N)NC(=O)[C@H]([C@@H](C)CC)NC1=O` [compound 217] yielded a Kd (SPR, peptides, linker-added peptides and FITC conjugates, Patent ID 203-230, read-out: KD) of 1 to 100 nM.
`CC[C@H](C)[C@@H]1NC(=O)[C@H](Cc2ccc(OC)cc2)NC(=O)[C@H](Cc2ccc(O)cc2)NC(=O)[C@H](CC(N)=O)NC(=O)[C@H](Cc2c[nH]c3ccccc23)N(C)C(=O)[C@H](C(C)C)NC(=O)[C@H](Cc2cccc(Cl)c2)N(C)C(=O)[C@H](CC(=O)O)NC(=O)[C@H](C)NC(=O)CSC[C@@H](C(=O)NCC(=O)NCC(=O)NCC(=O)NCC(=O)N[C@@H](CO)C(=O)N[C@@H](CO)C(=O)N[C@@H](CS)C(N)=O)NC(=O)[C@H](Cc2ccc(O)cc2)N(C)C(=O)[C@H](Cc2ccccc2)NC(=O)[C@@H](CCCNC(=N)N)NC(=O)[C@H](CCCNC(=N)N)NC(=O)[C@H]([C@@H](C)CC)NC1=O` [compound 236] ({CH2CO}-AD[NMePhe(3-Cl)]V[NMeW]NYY(Me)IIR[dR]F[NMeY]CGGGGSSC-NH2; thioether N-15) showed a Kd of 100 to 1000 nM.
